Laboratory results as given in ChEMBL document CHEMBL1143015, “Hyrtinadine A, a bis-indole alkaloid from a marine sponge” (J Nat Prod, 2007).
In brackets after ≈: the same amount, converted by molar mass.

Tests used:
[1] = tested on: L1210; assay: Cytotoxicity against mouse L1210 cells; type: cell-based
[2] = tested on: KB; assay: Cytotoxicity against human KB cells; type: cell-based

For `Oc1ccc2[nH]cc(-c3cnc(-c4c[nH]c5ccc(O)cc45)nc3)c2c1` [HYRTINADINE A], the IC50 [1] was 1 µg/mL (≈ 2.92 µM) and the IC50 [2] was 3 µg/mL (≈ 8.76 µM).
